Measured values reported in US8192962B2, “Processes for detecting toxic substances” (Daikin Industries, Ltd., priority 2001, dated 2012).

System: Unknown protein yeast genes
Test: DNA chip mRNA expression in yeast, unknown protein yeast genes (Table 1)
Assay type: cell-based, Saccharomyces cerevisiae S288C
Description: Yeast (Saccharomyces cerevisiae S288C (α SUC2mal mel gap2 CUP1)) were incubated at 25° C. on YPD medium (yeast extract 1%, polypepton 2%, glucose 2%). One of toxic chemical substances was added to the cells at logarithmic growth phase, and the cells were further incubated for two hours. Cells were cultured without any chemical substance in the same condition, and were used as control. Concentrations of the chemical substances were defined to inhibit the growth of the yeast but not lead to death.
After completion of the incubation, the culture was centrifuged to collect the cells. To the cells, sodium acetate buffer (50 mM sodium acetate, 10 mM EDTA, 1% SDS) was added, and the mixture was shaken at 65° C. for five minutes, followed by returning to room temperature, and obtaining the supernatant, of which the procedures were repeated two times. To the supernatant, ½ amount of a solution of phenol/chloroform was added, and the mixture was centrifuged to give a supernatant, which was added with an equal amount of chloroform, and the mixture was centrifuged to give a supernatant. To the supernatant, an equal amount of isopropanol containing 0.3 M sodium acetate was added, and the mixture was allowed to stand at room temperature for 30 minutes, after which the mixture was centrifuged to give a sediment of the whole RNAs. Seventy % ethanol was added to the sediment, and the mixture was again centrifuged to give a sediment, which was then dried and dissolved in water. mRNA was isolated from the whole RNAs as followings. In view of the fact that a poly A chain is attached to the 3′ terminus of mRNA, a polynucleotide having a poly T structure which was immobilized on the surface of latex beads was used to trap the mRNA, and then the mRNA was washed and eluted with spine column (Oligotex-dT30<Super>mRNA Purification Kit, Takara). Reverse transcription of the mRNA was conducted with a reverse transcriptase (Super Script II Reverse Transcriptase; catalogue No. 18064-014, GibcoBRL) using fluorescence-labeled nucleotides to give cDNAs that were introduced with Cy3-dUTP or Cy5-dUTP during the reverse transcription.
The labeled cDNAs were dissolved in TE buffer (10mM Tris-HCl/1 mM EDTA, pH8.0), and the solution was dropped on the DNA chip containing the whole genes of yeast (DNA Chip Research Inc. Japan) so that the cDNAs were hybridized on the DNA chip at 65° C. for over 12 hours. The fluoresces intensity of the DNA chip was read with a scanner, and the ratio relative to the fluorescence intensity resulting from the absence of chemical substance was estimated as the following, which is shown in Tables 1 to 9: […]

C[S+](C)[O-] [(15), dimethylsulfoxide]
The level of expressed mRNA in the presence of chemical substance/The level of expressed mRNA in the absence of chemical substance (yeast gene YLR008C): 0.7 | The level of expressed mRNA in the presence of chemical substance/The level of expressed mRNA in the absence of chemical substance (yeast gene YLR226W): 1.3 | The level of expressed mRNA in the presence of chemical substance/The level of expressed mRNA in the absence of chemical substance (yeast gene YLR297W): 0.7 | The level of expressed mRNA in the presence of chemical substance/The level of expressed mRNA in the absence of chemical substance (yeast gene YLR311C, incubated two hours with substance): 0.5 | The level of expressed mRNA in the presence of chemical substance/The level of expressed mRNA in the absence of chemical substance (yeast gene YLR346C): 1.0 | The level of expressed mRNA in the presence of chemical substance/The level of expressed mRNA in the absence of chemical substance (yeast gene YLR392C): 0.5 | The level of expressed mRNA in the presence of chemical substance/The level of expressed mRNA in the absence of chemical substance (yeast gene YLR415C): 1.0 | The level of expressed mRNA in the presence of chemical substance/The level of expressed mRNA in the absence of chemical substance (yeast gene YLR427W): 0.8 | The level of expressed mRNA in the presence of chemical substance/The level of expressed mRNA in the absence of chemical substance (yeast gene YLR460C): 0.7 | The level of expressed mRNA in the presence of chemical substance/The level of expressed mRNA in the absence of chemical substance (yeast gene YML013W): 2.2 | The level of expressed mRNA in the presence of chemical substance/The level of expressed mRNA in the absence of chemical substance (yeast gene YML029W): 0.8 | The level of expressed mRNA in the presence of chemical substance/The level of expressed mRNA in the absence of chemical substance (yeast gene YML041C): 1.0 | The level of expressed mRNA in the presence of chemical substance/The level of expressed mRNA in the absence of chemical substance (yeast gene YML079W): 0.3 | The level of expressed mRNA in the presence of chemical substance/The level of expressed mRNA in the absence of chemical substance (yeast gene YMR041C, incubated two hours with substance): 0.5 | The level of expressed mRNA in the presence of chemical substance/The level of expressed mRNA in the absence of chemical substance (yeast gene YMR068W): 2.2 | The level of expressed mRNA in the presence of chemical substance/The level of expressed mRNA in the absence of chemical substance (yeast gene YMR090W): 1.9 | The level of expressed mRNA in the presence of chemical substance/The level of expressed mRNA in the absence of chemical substance (yeast gene YMR160W): 1.5 | The level of expressed mRNA in the presence of chemical substance/The level of expressed mRNA in the absence of chemical substance (yeast gene YMR315W): 2.5 | The level of expressed mRNA in the presence of chemical substance/The level of expressed mRNA in the absence of chemical substance (yeast gene YNL026W): 0.8 | The level of expressed mRNA in the presence of chemical substance/The level of expressed mRNA in the absence of chemical substance (yeast gene YNL058C): 2.2 | The level of expressed mRNA in the presence of chemical substance/The level of expressed mRNA in the absence of chemical substance (yeast gene YNL063W): 0.7 | The level of expressed mRNA in the presence of chemical substance/The level of expressed mRNA in the absence of chemical substance (yeast gene YNL176C): 0.8 | The level of expressed mRNA in the presence of chemical substance/The level of expressed mRNA in the absence of chemical substance (yeast gene YNL194C): 0.5 | The level of expressed mRNA in the presence of chemical substance/The level of expressed mRNA in the absence of chemical substance (yeast gene YNL200C): 0.8 | The level of expressed mRNA in the presence of chemical substance/The level of expressed mRNA in the absence of chemical substance (yeast gene YNL211C): 0.8 | The level of expressed mRNA in the presence of chemical substance/The level of expressed mRNA in the absence of chemical substance (yeast gene YNL253W): 0.5 | The level of expressed mRNA in the presence of chemical substance/The level of expressed mRNA in the absence of chemical substance (yeast gene YNR051C): 1.2 | The level of expressed mRNA in the presence of chemical substance/The level of expressed mRNA in the absence of chemical substance (yeast gene YOL026C): 0.9 | The level of expressed mRNA in the presence of chemical substance/The level of expressed mRNA in the absence of chemical substance (yeast gene YOL031C): 4.4 | The level of expressed mRNA in the presence of chemical substance/The level of expressed mRNA in the absence of chemical substance (yeast gene YOL101C): 0.6 | The level of expressed mRNA in the presence of chemical substance/The level of expressed mRNA in the absence of chemical substance (yeast gene YOL150C): 1.8 | The level of expressed mRNA in the presence of chemical substance/The level of expressed mRNA in the absence of chemical substance (yeast gene YOR022C): 0.8 | The level of expressed mRNA in the presence of chemical substance/The level of expressed mRNA in the absence of chemical substance (yeast gene YOR049C): 1.3 | The level of expressed mRNA in the presence of chemical substance/The level of expressed mRNA in the absence of chemical substance (yeast gene YOR087W): 0.8 | The level of expressed mRNA in the presence of chemical substance/The level of expressed mRNA in the absence of chemical substance (yeast gene YOR138C): 1.0 | The level of expressed mRNA in the presence of chemical substance/The level of expressed mRNA in the absence of chemical substance (yeast gene YOR248W, incubated two hours with chemical substance): 8.8 | The level of expressed mRNA in the presence of chemical substance/The level of expressed mRNA in the absence of chemical substance (yeast gene YOR253W): 1.1 | The level of expressed mRNA in the presence of chemical substance/The level of expressed mRNA in the absence of chemical substance (yeast gene YOR267C): 1.3 | The level of expressed mRNA in the presence of chemical substance/The level of expressed mRNA in the absence of chemical substance (yeast gene YOR338W): 1.8 | The level of expressed mRNA in the presence of chemical substance/The level of expressed mRNA in the absence of chemical substance (yeast gene YPL005W): 1.2 | The level of expressed mRNA in the presence of chemical substance/The level of expressed mRNA in the absence of chemical substance (yeast gene YPL150W): 1.1 | The level of expressed mRNA in the presence of chemical substance/The level of expressed mRNA in the absence of chemical substance (yeast gene YPL152W): 2.3 | The level of expressed mRNA in the presence of chemical substance/The level of expressed mRNA in the absence of chemical substance (yeast gene YPL168W): 0.8 | The level of expressed mRNA in the presence of chemical substance/The level of expressed mRNA in the absence of chemical substance (yeast gene YPL180W): 0.7 | The level of expressed mRNA in the presence of chemical substance/The level of expressed mRNA in the absence of chemical substance (yeast gene YPL188W): 0.8 | The level of expressed mRNA in the presence of chemical substance/The level of expressed mRNA in the absence of chemical substance (yeast gene YPL221W): 1.0 | The level of expressed mRNA in the presence of chemical substance/The level of expressed mRNA in the absence of chemical substance (yeast gene YPL280W): 4.3 | The level of expressed mRNA in the presence of chemical substance/The level of expressed mRNA in the absence of chemical substance (yeast gene YPR049C): 1.5 | The level of expressed mRNA in the presence of chemical substance/The level of expressed mRNA in the absence of chemical substance (yeast gene YPR077C, cells incubated two hours with the chemical substance): 2.9 | The level of expressed mRNA in the presence of chemical substance/The level of expressed mRNA in the absence of chemical substance (yeast gene YPR148C): 1.7 | The level of expressed mRNA in the presence of chemical substance/The level of expressed mRNA in the absence of chemical substance (yeast gene YPR172W): 1.5
